Laboratory results as given in patent US20060063784A1, “Method of using substituted pyrazolo [1,5-a] pyrimidines” (priority 2004, published 2006).
Where two headings read alike, the source gives them in different places.

System: 80S14 (p21-deficient) cells
Experiment: Cytotoxicity assay using isogenic cell lines: IC50 in 80S14 (p21-deficient) cells, SRB
Assay type: cell-based, human
Procedure, shortened: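 IC50 is the concentration halving proliferation relative to untreated controls, read from SRB absorbance (560 nm) after TCA fixation. Test agent dilutions (5 pM–50 μM or 170 pg/ml–10 μg/ml) were left on p21-deficient 80S14 cells (12,000/well, pre-incubated overnight) for 5 days at 37 °C.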

[1] = Homo sapiens, 120 h, 80S14 (p21-deficient) cells, 5 days, SRB, class symbols, read-out: IC50 for 80S14
[2] = Homo sapiens, 80S14, 120 h, read-out: IC50 for 80S14 (uM)
[3] = 80S14 (p21-deficient) cells, 5 days, SRB, class symbols, read-out: IC50 for 80S14

For `COc1ccc(-c2ccnc3c(C(=O)c4cccs4)cnn23)c(OC)c1` [Example 246, [7-(2,4-dimethoxyphenyl)pyrazolo[1,5-a]-pyrimidin-3-yl}-2-thienyl-methanone], the IC50 [1] was 10 to 50 µM.
In the case of `CC(=O)Nc1cccc(-c2ccnc3c(C(=O)c4cccs4)cnn23)c1` [Example 250, N-[3-[3-(2-Thienylcarbonyl)pyrazolo[1,5-a]pyrimidin-7-yl]phenyl}-acetamide], the IC50 [2] is reported as 1 to 10 µM.
`CCC(=O)Nc1cccc(-c2ccnc3c(C(=O)c4cccs4)cnn23)c1` [Example 251, N-[3-[3-(2-Thienylcarbonyl)pyrazolo[1,5-a]pyrimidin-7-yl]phenyl}-propanamide] gave an IC50 [2] of under 1 µM.
For `Cc1ccc(C(=O)c2cnn3c(-c4cccc(NC(=O)C5CC5)c4)ccnc23)s1` [Example 252, N-[3-[3-[(5-Methyl-2-thienyl)carbonyl]pyrazolo[1,5-a]pyrimidin-7-yl]phenyl}-cyclopropanecarboxamide], the IC50 [1] was 1 to 10 µM.
For `CCN(C(=O)C1CC1)c1cccc(-c2ccnc3c(C(=O)c4ccccc4)cnn23)c1` [Example 253, N-[3-(3-Benzoylpyrazolo[1,5-a]pyrimidin-7-yl)phenyl]-N-ethyl-cyclopropanecarboxamide], the IC50 [1] was 10 to 50 µM.
`CCN(C(=O)C1CC1)c1cccc(-c2ccnc3ccnn23)c1` [Example 254, N-Ethyl-N-(3-pyrazolo[1,5-a]pyrimidin-7-ylphenyl)-cyclopropanecarboxamide] showed an IC50 [1] of 10 to 50 µM.
With `CCN(C(=O)C1CC1)c1cccc(-c2ccnc3c(Cl)cnn23)c1` [Example 255, N-[3-(3-Chloropyrazolo[1,5-a]pyrimidin-7-yl)phenyl]-N-ethyl-cyclopropanecarboxamide] the IC50 [1] was 10 to 50 µM.
With `CCN(C(=O)C1CC1)c1cccc(-c2ccnc3c(C#N)cnn23)c1` [Example 256, N-[3-(3-Cyanopyrazolo[1,5-a]pyrimidin-7-yl)phenyl]-N-ethyl-cyclopropanecarboxamide] the IC50 [1] was 10 to 50 µM.
For `CCN(C(=O)C1CC1)c1cccc(-c2ccnc3c(C(=O)c4ccco4)cnn23)c1` [Example 257, N-Ethyl-N-[3-[3-(2-furanylcarbonyl)pyrazolo[1,5-a]pyrimidin-7-yl]phenyl}-cyclopropanecarboxamide], the IC50 [1] was 10 to 50 µM.
`C#CCN(C(=O)C1CC1)c1cccc(-c2ccnc3c(C(=O)OCC)cnn23)c1` [Example 258, Ethyl 7-[3-[(cyclopropylcarbonyl)-2-propynylamino]phenyl]-pyrazolo[1,5-a]pyrimidine-3-carboxylic acid] was tested, and the IC50 [3] was 10 to 50 µM.
`C#CCN(C(=O)C1CC1)c1cccc(-c2ccnc3c(C(=O)c4cccs4)cnn23)c1` [Example 259, N-2-Propynyl-N-[3-[3-(2-thienylcarbonyl)pyrazolo[1,5-a]pyrimidin-7-yl]phenyl}-cyclopropanecarboxamide] gave an IC50 [1] of 1 to 10 µM.
`O=CNc1cccc(-c2ccnc3c(C(=O)c4cccs4)cnn23)c1` [Example 260, N-[3-[3-(2-Thienylcarbonyl)pyrazolo[1,5-a]pyrimidin-7-yl]phenyl}-formamide] gave an IC50 [2] of 1 to 10 µM.
In the case of `CN(C=O)c1cccc(-c2ccnc3c(C(=O)c4cccs4)cnn23)c1` [Example 261, Formamide, N-methyl-N-[3-[3-(2-thienylcarbonyl)pyrazolo[1,5-a]pyrimidin-7-yl]phenyl}], the IC50 [3] is reported as 1 to 10 µM.
`CCOc1cccc(-c2ccnc3c(C(=O)c4cccs4)cnn23)c1` [Example 263, [7-(3-Ethoxyphenyl)pyrazolo[1,5-a]pyrimidin-3-yl]-2-thienyl-methanone] was tested, and the IC50 [1] was 1 to 10 µM.
Work on `COCCOc1cccc(-c2ccnc3c(C(=O)c4cccs4)cnn23)c1` [Example 264, [7-[3-(2-Methoxyethoxy)phenyl]pyrazolo[1,5-a]pyrimidin-3-yl]-2-thienyl-methanone] yielded an IC50 [1] of 1 to 10 µM.
`O=C(c1cccs1)c1cnn2c(-c3cccc(OC4CCCC4)c3)ccnc12` [Example 265, [7-[3-(Cyclopentyloxy)phenyl]pyrazolo[1,5-a]pyrimidin-3-yl]-2-thienyl-methanone] was tested, and the IC50 [1] was 1 to 10 µM.
`CNc1cccc(-c2ccnc3c(C(=O)c4cccs4)cnn23)c1` [Example 266, [7-[3-(Methylamino)phenyl]pyrazolo[1,5-a]pyrimidin-3-yl]-2-thienyl-methanone] gave an IC50 [1] of 1 to 10 µM.
Compound `Cc1ccc(C(=O)c2cnn3c(-c4cccc(N(C)C(=O)C5CC5)c4)ccnc23)cc1` [Example 268, N-Methyl-N-[3-[3-(4-methylbenzoyl)pyrazolo[1,5-a]pyrimidin-7-yl]phenyl}-cyclopropanecarboxamide] has an IC50 [1] of 10 to 50 µM.
`O=C(c1cccs1)c1cnn2c(-c3cccc(-n4cccc4)c3)ccnc12` [Example 270, [7-[3-(1H-Pyrrol-1-yl)phenyl]pyrazolo[1,5-a]pyrimidin-3-yl]-2-thienyl-methanone] gave an IC50 [1] of 1 to 10 µM.
In the case of `CCNc1ccc(-c2ccnc3c(C(=O)c4cccs4)cnn23)cc1` [Example 271, [7-[4-(Ethylamino)phenyl]pyrazolo[1,5-a]pyrimidin-3-yl]-2-thienyl-methanone], the IC50 [1] is reported as 10 to 50 µM.
`C=CC(=O)Nc1cccc(-c2ccnc3c(C(=O)c4cccs4)cnn23)c1` [Example 272, N-{3-[3-(2-Thienylcarbonyl)pyrazolo[1,5-a]pyrimidin-7-yl]phenyl}acrylamide] gave an IC50 [1] of under 1 µM.
`O=C(c1cccs1)c1cnn2c(-c3cccc(NC(=O)C4CO4)c3)ccnc12` (centres unmarked) [Example 277, N-{3-[3-(2-Thienylcarbonyl)pyrazolo[1,5-a]pyrimidin-7-yl]phenyl}-2-oxiranecarboxamide] gave an IC50 [1] of under 1 µM.
Compound `Cc1cc(-c2cccc(NC(=O)C3CO3)c2)n2ncc(C(=O)c3cccs3)c2n1` (centres unmarked) [Example 278, {3-[5-Methyl-3-(2-thienylcarbonyl)pyrazolo[1,5-a]pyrimidin-7-yl]phenyl}-2-oxiranecarboxamide] has an IC50 [3] of under 1 µM.
`Cc1cc(-c2cccc(NC(=O)C3CCC3)c2)n2ncc(C(=O)c3cccs3)c2n1` [Example 279, N-{3-[5-Methyl-3-(2-thienylcarbonyl)pyrazolo[1,5-a]pyrimidin-7-yl]phenyl}cyclobutanecarboxamide] was tested, and the IC50 [1] was under 1 µM.
`O=C(Nc1cccc(-c2ccnc3c(C(=O)c4cccs4)cnn23)c1)c1cc(C(F)(F)F)ccc1C(F)(F)F` [Example 280, N-{3-[3-(2-Thienylcarbonyl)pyrazolo[1,5-a]pyrimidin-7-yl]phenyl}-2,5-bis(trifluoromethyl)benzamide] was tested, and the IC50 [1] was 10 to 50 µM.
`O=C(Nc1cccc(-c2ccnc3c(C(=O)c4cccs4)cnn23)c1)c1cccc(Br)c1` [Example 286, 3-Bromo-N-{3-[3-(2-thienylcarbonyl)pyrazolo[1,5-a]pyrimidin-7-yl]phenyl}benzamide] gave an IC50 [1] of under 1 µM.
For `CC(C)(C)c1ccc(C(=O)Nc2cccc(-c3ccnc4c(C(=O)c5cccs5)cnn34)c2)cc1` [Example 287, 4-(tert-butyl)-N-{3-[3-(2-thienylcarbonyl)pyrazolo[1,5-a]pyrimidin-7-yl]phenyl}benzamide], the IC50 [1] was 10 to 50 µM.
Compound `O=C(Nc1cccc(-c2ccnc3c(C(=O)c4cccs4)cnn23)c1)c1ccc(Cl)cc1Cl` [Example 289, 2,4-Dichloro-N-{3-[3-(2-thienylcarbonyl)pyrazolo[1,5-a]pyrimidin-7-yl]phenyl}benzamide] has an IC50 [1] of 1 to 10 µM.
`CCCCNC(=N)OC(=N)N(CCCC)c1cccc(-c2ccnc3c(C(=O)c4cccs4)cnn23)c1` [Example 292, N,N′-Dibutyl-N-{3-[3-(2-thienylcarbonyl)pyrazolo[1,5-a]pyrimidin-7-yl]phenyl}dicarbonimidic diamide] was tested, and the IC50 (Homo sapiens, 120 h, 80S14 (p21-deficient) cells, 5 days, SRB, numeric value, read-out: IC50 for 80S14) was 4.5 µM.
